# In patent US20250186603A1, “ANTI-GD2 ANTIBODIES, IMMUNOCONJUGATES AND THERAPEUTIC USES THEREOF” (Merck Patent GmbH, priority 2022, published 2025):
# B1: Dinutaximab beta (antibody, chains of the INN, looked up, V domains shown)
# VH: EVQLLQSGPELEKPGASVMISCKASGSSFTGYNMNWVRQNIGKSLEWIGAIDPYYGGTSYNQKFKGRATLTVDKSSSTAYMHLKSLTSEDSAVYYCVSGMEYWGQGTSVTVSS
# VL: EIVMTQSPATLSVSPGERATLSCRSSQSLVHRNGNTYLHWYLQKPGQSPKLLIHKVSNRFSGVPDRFSGSGSGTDFTLKISRVEAEDLGVYFCSQSTHVPPLTFGAGTKLELK
# Columns and labels:
# CTG-2264 tumors = test: Combination efficacy study of anti-GD2 ADC and ATR inhibitor in osteosarcoma PDX model CTG-2264; format: in vivo, athymic nude mice (nu/nu); conditions: Day 23; Molecule 1 3.0 mg/kg single IV Day0; ATR inhibitor 10 mg/kg p.o. qd; combination of both
# Protocol: The antitumor activities of selected ADCs of the present invention were tested in the CTG-2264, osteosarcoma PDX model.
# Vehicle control was saline and dosed (10 mL/kg) at Day0. The group size for each treatment group was 3. The calculation of the Tumor Growth Inhibition (TGI) was done for Day 23 after treatment start, when the mean tumor volume of the control group reached 1000 mm3 (see FIG. 11, 12).
# [1] = system: CHP-134 (neuroblastoma) cells; test: ADC cell killing assay (CellTiter Glo Luminescent Cell Viability assay) on CHP-134; format: cell-based, human
# Protocol: (§1) The in vitro potency of the ADCs hu14.18-IgG1.4 (K322A)-delK-βGluc Exatecan and rituximab IgG1 βGluc Exatecan, the unconjugated antibody hu14.18-IgG1.4 (K322A)-delk and the free payload Exatecan was measured on antigen-positive human tumor cell lines CHP-134 (neuroblastoma, #ACC653, DSMZ, Braunschweig, Germany), NCI-H446 (small cell lung cancer (SCLC), #HTB-171, ATCC, Manassas, VA, USA) as well as M21 (melanoma, Scripps Research Institute, La Jolla, CA, USA) and antigen-negative human tumor cell line MDA-MB-468 (breast carcinoma, #ACC738, DSMZ, Braunschweig, Germany) using the CellTiter Glo® Luminescent Cell Viability assay (#G7573, Promega Corporation, Madison, WI, USA).
# (§2) The cell lines CHP-134, NCI-H446 and MDA-MB-468 were cultured as instructed by vendor and maintained in RPMI1640 medium with GlutaMAX™ supplement (#61870-010, Gibco™, purchased from Thermo Fisher Scientific, Waltham, MA, USA), 1 mM sodium pyruvate (#11360-070, Gibco™, Thermo Fisher Scientific) and 10% fetal bovine serum (FBS) (#S0615, Sigma Aldrich, St. Louis, MO, USA). The melanoma cell line M21 was cultured in DMEM with stable L-glutamine (#41965-039, Gibco™, Thermo Fisher Scientific) and 10% FBS. […]
# [2] = system: NCI-H446 (small cell lung cancer) cells; test: ADC cell killing assay (CellTiter Glo Luminescent Cell Viability assay) on NCI-H446; format: cell-based, human
# Protocol: as §1, §2
# M21 (melanoma) cells = test: ADC cell killing assay (CellTiter Glo Luminescent Cell Viability assay) on M21; format: cell-based, human
# Protocol: as §1, §2
# [3] = system: MDA-MB-468 (breast carcinoma) cells; test: ADC cell killing assay (CellTiter Glo Luminescent Cell Viability assay) on MDA-MB-468; format: cell-based, human
# Protocol: as §1, §2
# [4] = cited from earlier work
molecule,measurement,setting,value
Nc1nn2cc(F)cnc2c1C(=O)Nc1cncc(F)c1N1CCC(C(=O)N2CCN(C3COC3)CC2)CC1 [ATR inhibitor],tumor growth inhibition (TGI),CTG-2264 tumors,67%
"CC[C@@]1(O)C(=O)OCc2c1cc1n(c2=O)Cc2c-1nc1cc(F)c(C)c3c1c2[C@@H](N)CC3 [Exatecan, (1S,9S)-1-Amino-9-ethyl-5-fluoro-9-hydroxy-4-methyl-1,2,3,9,12,15-hexahydro-10H,13H-benzo[de]pyrano[3′,4′:6,7]indolizino[1,2-b]quinoline-10,13-dione]",Span (%),"[1]; CHP-134, % efficacy at highest test concentration (100 nM for Molecule 1,2,4; 1 μM for Molecule 3), geomean",100%
same,IC50,"[1]; Homo sapiens, CHP-134, 144 h",0.2 nM
same,IC50,"[2]; Homo sapiens, NCI-H446, 144 h",0.07 nM
same,Span (%),"[2]; NCI-H446, % efficacy at highest test concentration (100 nM for Molecule 1,2,4; 1 μM for Molecule 3), geomean",96%
same,IC50,"M21 (melanoma) cells; Homo sapiens, M21, 144 h",1.1 nM
same,Span (%),"M21 (melanoma) cells; M21, % efficacy at highest test concentration (100 nM for Molecule 1,2,4; 1 μM for Molecule 3), geomean",95%
same,IC50,"[3]; Homo sapiens, MDA-MB-468, 144 h",0.3 nM
same,Span (%),"[3]; MDA-MB-468, % efficacy at highest test concentration (100 nM for Molecule 1,2,4; 1 μM for Molecule 3), geomean",100%
B1,clinical signs,"[4]; cynomolgus monkeys, EMA/263814/2017",clinical signs that were interpreted as acute pain
same,histopathology of peripheral nervous system,"[4]; infused 4 h/day for 10 consecutive days, 30 and 100 mg/m^2/day",histopathological changes were noted on day 15 in the peripheral nerves and visceral nervous innervation of organs
